From patent US11931343B2 (ARCUS BIOSCIENCES, INC., priority 2018, dated 2024) come the findings set out here.

The assay concerns the target T1, human CD73 (Homo sapiens, UniProt P21589).
T1 sequence (P21589 27-549): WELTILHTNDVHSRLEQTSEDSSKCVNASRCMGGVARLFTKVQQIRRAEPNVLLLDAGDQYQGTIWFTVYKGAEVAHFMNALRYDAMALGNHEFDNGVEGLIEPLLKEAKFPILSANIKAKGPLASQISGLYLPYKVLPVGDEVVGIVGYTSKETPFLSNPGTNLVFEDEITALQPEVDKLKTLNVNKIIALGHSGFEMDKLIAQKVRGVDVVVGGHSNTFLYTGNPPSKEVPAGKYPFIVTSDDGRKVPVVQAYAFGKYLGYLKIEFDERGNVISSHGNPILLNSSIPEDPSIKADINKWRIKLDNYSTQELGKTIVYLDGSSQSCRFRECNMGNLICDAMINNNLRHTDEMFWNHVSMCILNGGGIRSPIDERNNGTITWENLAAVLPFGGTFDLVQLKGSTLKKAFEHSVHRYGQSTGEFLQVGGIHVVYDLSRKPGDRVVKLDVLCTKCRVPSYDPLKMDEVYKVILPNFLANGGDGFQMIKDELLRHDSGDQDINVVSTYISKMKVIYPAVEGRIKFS
Nature of the assay: Inhibition of Ecto-5′-nucleotidase (CD73) activity in CHO-CD73 cells, phosphate release from AMP. The assay is classed as cell-based. The note with it: CHO-K1 cells stably transfected with human CD73; 25 μM AMP; 50 minutes, 37° C.; read-out: Potency: CD73 IC50.

pIC50: −log10 of the molar value.

As usually defined, the pIC50 is −log10 of the IC50, conventionally taken in molar units. Turning to `N#Cc1ccc(Cn2nccc2-c2cnc3c(Cl)nn(-c4ccc5cn[nH]c5c4)c3c2)cc1` [Example 371], the pIC50 is 6.00 to 7.00.

Take `N#Cc1ccc(Cn2nccc2-c2cc3c(nnn3-c3ccc4cn[nH]c4c3)[nH]c2=O)cc1` [Example 372]: the pIC50 is 6.00 to 7.00.

Consider `Fc1cc(-c2ccnn2C2CCCOC2)cc2c1nnn2-c1ccc2cn[nH]c2c1` (stereo not drawn) [Example 373], for which the pIC50 is less than 6.00.

As to `CC(c1ccc(Cl)cn1)n1nccc1-c1cc(Cl)c2nnn(-c3ccc4cn[nH]c4c3)c2c1` (stereo not drawn) [Example 374], the pIC50 is 6.00 to 7.00.

`OC(Cn1nccc1-c1cc(F)c2nnn(-c3ccc4cn[nH]c4c3)c2c1)c1ccccc1` (stereo not drawn) [Example 375]: the pIC50 was less than 6.00.

In the case of `N#Cc1ccc(Cn2nccc2-c2cnc3c(C(F)(F)F)nn(-c4ccc5cn[nH]c5c4)c3c2)cc1` [Example 376], the pIC50 is less than 6.00.

For `CC(c1ccc(Cl)cn1)n1nccc1-c1cc(F)c2nnn(-c3ccc4cn[nH]c4c3)c2c1` (stereo not drawn) [Example 377], the pIC50 is 6.00 to 7.00.

For the compound `N#Cc1ccc(Cn2nccc2-c2cc3c(cc2F)nnn3-c2ccc3cn[nH]c3c2)cc1` [Example 378], the negative logarithm of the IC50 (pIC50) was greater than 7.00.

As for `CC(c1ccc(Cl)c[n+]1[O-])n1nccc1-c1cc(Cl)c2nnn(-c3ccc4cn[nH]c4c3)c2c1` (stereo not drawn) [Example 379], the pIC50 was 6.00 to 7.00.

For the compound `Cc1ccc(C(C)n2nccc2-c2cc(Cl)c3nnn(-c4ccc5cn[nH]c5c4)c3c2)nc1` (stereo not drawn) [Example 380], the pIC50 was 6.00 to 7.00.

With `Cc1ccc(Cn2nccc2-c2cc(Cl)c3nnn(-c4ccc5cn[nH]c5c4)c3c2)[n+]([O-])c1` [Example 381], the negative logarithm of the IC50 (pIC50) is greater than 7.00.

Consider `CC(c1ccc(C#N)cc1)n1nccc1-c1cc2c(cc1F)nnn2-c1ccc2cn[nH]c2c1` (stereo not drawn) [Example 382], for which the pIC50 is 6.00 to 7.00.

In the case of `CC(c1ccc(Cl)cn1)n1nccc1-c1cc2c(cc1F)nnn2-c1ccc2cn[nH]c2c1` (stereo not drawn) [Example 383], the pIC50 is 6.00 to 7.00.

On to `Cc1cc2nnn(-c3ccc4cn[nH]c4c3)c2cc1-c1ccnn1Cc1ccc(C#N)cc1` [Example 384], for which the negative-log IC50 (pIC50) was 6.00 to 7.00.

As for `CC(Cn1nccc1-c1cc(F)c2nnn(-c3ccc4cn[nH]c4c3)c2c1)c1ccccc1` (stereo not drawn) [Example 385], the negative logarithm of the IC50 (pIC50) was less than 6.00.

In the case of `Cc1nn(-c2ccc3cn[nH]c3c2)c2cc(-c3ccnn3Cc3ccc(Cl)cc3)cnc12` [Example 386], the pIC50 was 6.00 to 7.00.

Take `CC(c1ccc(Cl)c[n+]1[O-])n1c(-c2cc3c(cc2F)nnn3-c2ccc3cn[nH]c3c2)cc[n+]1[O-]` (stereo not drawn) [Example 387]: the pIC50 is 6.00 to 7.00.

For `Cc1ccc(F)c(-n2nccc2-c2cc(F)c3nnn(-c4ccc5cn[nH]c5c4)c3c2)c1` [Example 388], the negative logarithm of the IC50 (pIC50) is less than 6.00.

In the case of `N#Cc1ccc(Cn2nccc2-c2cc(F)c3c(N)nn(-c4ccc5cn[nH]c5c4)c3c2)cc1` [Example 389], the negative logarithm of the IC50 (pIC50) was 6.00 to 7.00.

For the compound `Cc1ccc(C(C)n2nccc2-c2cc(Cl)c3nnn(-c4ccc5cn[nH]c5c4)c3c2)[n+]([O-])c1` (stereo not drawn) [Example 390], the negative logarithm of the IC50 (pIC50) was 6.00 to 7.00.

For `N#Cc1ccc(Cn2nccc2-c2cc3c(c[n+]2[O-])nnn3-c2ccc3[nH]c(=O)[nH]c3c2)cc1` [Example 391], the pIC50 is less than 6.00.

For `Cc1ccc(Cn2nccc2-c2cc3c(cc2F)nnn3-c2ccc3cn[nH]c3c2)nc1` [Example 392], the pIC50 was greater than 7.00.

As for `Cc1cccc(-n2nccc2-c2cc3c(cc2F)nnn3-c2ccc3cn[nH]c3c2)c1` [Example 393], the pIC50 is 6.00 to 7.00.

Regarding `Fc1cc(-c2ccnn2-c2ccc3[nH]ncc3c2)cc2c1nnn2-c1ccc2cn[nH]c2c1` [Example 394], the pIC50 is less than 6.00.

Turning to `Cc1ccc(C(C)n2nccc2-c2cc(F)c3nnn(-c4ccc5cn[nH]c5c4)c3c2)nc1` (stereo not drawn) [Example 396], the negative logarithm of the IC50 (pIC50) was 6.00 to 7.00.

Consider `Cc1ccc(Cn2nccc2-c2cc3c(cc2F)nnn3-c2ccc3cn[nH]c3c2)[n+]([O-])c1` [Example 397], for which the negative logarithm of the IC50 (pIC50) is 6.00 to 7.00.

As to `Cc1cc2nnn(-c3ccc4cn[nH]c4c3)c2cc1-c1ccnn1C(C)c1ccc(C#N)cc1` (stereo not drawn) [Example 398], the pIC50 was less than 6.00.

Turning to `Cc1cc2nnn(-c3ccc4cn[nH]c4c3)c2cc1-c1ccnn1C(C)c1ccc(Cl)cn1` (stereo not drawn) [Example 399], the pIC50 was less than 6.00.

Turning to `N#Cc1ccc(Cn2nccc2-c2cc3c(cc2Cl)nnn3-c2ccc3cn[nH]c3c2)c(F)c1` [Example 400], the negative-log IC50 (pIC50) was greater than 7.00.

In the case of `CC(c1ccc(C#N)cc1)n1nccc1-c1cc2c(cc1Cl)nnn2-c1ccc2cn[nH]c2c1` (stereo not drawn) [Example 401], the negative-log IC50 (pIC50) was 6.00 to 7.00.

On to `CC(c1ccc(Cl)cn1)n1nccc1-c1cc2c(cc1Cl)nnn2-c1ccc2cn[nH]c2c1` (stereo not drawn) [Example 402], for which the pIC50 was 6.00 to 7.00.

As to `N#Cc1cccc(-n2nccc2-c2cc3c(cc2Cl)nnn3-c2ccc3cn[nH]c3c2)c1` [Example 403], the negative-log IC50 (pIC50) is less than 6.00.

With `Clc1cccc(-n2nccc2-c2cc3c(cc2Cl)nnn3-c2ccc3cn[nH]c3c2)c1` [Example 404], the pIC50 was 6.00 to 7.00.

With `Cc1nn(-c2ccc3cn[nH]c3c2)c2cc(-c3ccnn3Cc3ccc(C#N)cc3)ncc12` [Example 405], the pIC50 was 6.00 to 7.00.

For `Cc1cccc(-n2nccc2-c2cc3c(cc2C)nnn3-c2ccc3cn[nH]c3c2)c1` [Example 406], the negative logarithm of the IC50 (pIC50) was less than 6.00.

As to `Cc1cccc(-n2nccc2-c2cnc3c(C)nn(-c4ccc5cn[nH]c5c4)c3c2)c1` [Example 408], the pIC50 is 6.00 to 7.00.

Consider `Cc1ccc(F)c(-n2nccc2-c2cc3c(cn2)nnn3-c2ccc3cn[nH]c3c2)c1` [Example 409], for which the negative-log IC50 (pIC50) was less than 6.00.

For `N#Cc1ccc(Cn2nccc2-c2cc(F)c3nnn(-c4ccc5cn[nH]c5c4F)c3c2)cc1` [Example 410], the pIC50 is 6.00 to 7.00.

Consider `Cc1cccc(-n2nccc2-c2cc3c(cc2Cl)nnn3-c2ccc3cn[nH]c3c2)c1` [Example 411], for which the pIC50 is 6.00 to 7.00.

Turning to `CC(c1ccc(C#N)cc1F)n1nccc1-c1cc2c(cc1F)nnn2-c1ccc2cn[nH]c2c1` (stereo not drawn) [Example 412], the negative-log IC50 (pIC50) was 6.00 to 7.00.

Take `Cc1cccc(-n2ncc(Cl)c2-c2cc(F)c3nnn(-c4ccc5cn[nH]c5c4)c3c2)c1` [Example 413]: the pIC50 was 6.00 to 7.00.

In the case of `Cc1cccc(-n2ncc(C)c2-c2cc(F)c3nnn(-c4ccc5cn[nH]c5c4)c3c2)c1` [Example 416], the pIC50 was less than 6.00.

Consider `C=CCNc1nn(-c2ccc3cn[nH]c3c2)c2cc(-c3ccnn3Cc3ccc(C#N)cc3)cnc12` [Example 417], for which the negative-log IC50 (pIC50) was less than 6.00.

For `CC(c1ccc(C#N)cc1F)n1nccc1-c1cc(Cl)c2nnn(-c3ccc4[nH]c(=O)[nH]c4c3)c2c1` (stereo not drawn) [Example 418], the pIC50 is 6.00 to 7.00.

Take `N#Cc1ccc(C(CO)n2nccc2-c2cc(F)c3nnn(-c4ccc5cn[nH]c5c4)c3c2)cc1` (stereo not drawn) [Example 419]: the pIC50 was 6.00 to 7.00.

As to `N#Cc1ccc(Cn2nccc2-c2cnc3c(NCCO)nn(-c4ccc5cn[nH]c5c4)c3c2)cc1` [Example 420], the negative-log IC50 (pIC50) is less than 6.00.

Take `N#Cc1ccc(Cn2nccc2-c2cc3c(cc2CO)nnn3-c2ccc3cn[nH]c3c2)cc1` [Example 421]: the pIC50 was 6.00 to 7.00.

`N#Cc1ccc(Cn2nccc2-c2cnc3c(NCC(O)CO)nn(-c4ccc5cn[nH]c5c4)c3c2)cc1` (stereo not drawn) [Example 422]: the negative-log IC50 (pIC50) is less than 6.00.

`CNc1nn(-c2ccc3cn[nH]c3c2)c2cc(-c3ccnn3Cc3ccc(C#N)cc3)cnc12` [Example 423]: the negative-log IC50 (pIC50) is less than 6.00.

As to `CN(C)S(=O)(=O)Nc1nn(-c2ccc3cn[nH]c3c2)c2cc(-c3ccnn3Cc3ccc(C#N)cc3)cnc12` [Example 424], the pIC50 is less than 6.00.

Turning to `CCNc1nn(-c2ccc3cn[nH]c3c2)c2cc(-c3ccnn3Cc3ccc(C#N)cc3)cnc12` [Example 425], the pIC50 was less than 6.00.
